Measurements: publication PMC8452690, “Structural basis for small molecule targeting of Doublecortin Like Kinase 1 with DCLK1-IN-1” (Communications Biology, 2021)
Where a chain is given by its changes, count along the chain named. Marks after values point to notes of the source that are not given here.

Legend:
[1] = target: T1, DCLK1-KD (residues 372-649) (Homo sapiens, UniProt O15075); assay: Thermal shift stability assay, DCLK1-KD; type: binding; conditions: compound titration 2.5 to 40 μM
T1 construct: the DCLK1 kinase domain (DCLK1-KD; residues 372-649) by carrying out thermal stability assays; 8XHis tag with TEV protease cleavage site (N); made in house; host or cells: Escherichia coli C41(DE3)
T1 sequence (O15075 372-649 isoform O15075-2): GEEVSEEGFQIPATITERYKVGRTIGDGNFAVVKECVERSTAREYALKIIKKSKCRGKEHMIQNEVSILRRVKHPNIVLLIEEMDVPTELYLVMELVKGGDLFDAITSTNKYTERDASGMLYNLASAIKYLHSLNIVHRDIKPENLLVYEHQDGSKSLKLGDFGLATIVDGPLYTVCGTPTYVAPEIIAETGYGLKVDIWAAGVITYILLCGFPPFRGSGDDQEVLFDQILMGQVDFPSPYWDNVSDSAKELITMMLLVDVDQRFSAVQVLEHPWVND
Method: (§1) DCLK1 proteins were diluted in 150 mM NaCl, 20 mM Tris pH 8.0, 1 mM DTT to […] final concentration and assayed with the appropriate concentration of inhibitor in a total reaction volume of 25 μL. SYPRO Orange (Molecular Probes) was used as a fluorescence probe and detected at 530 nm. The data shown are representative of two independent experiments.

DCLK1-FL1Δ D511N [2] = target: T2, DCLK1-FL1Δ D511N (Homo sapiens, UniProt O15075, D511N); assay: SPR binding to immobilised DCLK1-FL1Δ D511N (non-phosphorylated); conditions: for Kd / kon, kinetic fitting: SPR; for kon, kinetic fitting: DCLK1 FL1Δ D511N; for koff: read-out: koff, kinetic fitting; for kon: read-out: kon (Fig. 5c)
T2 construct: DCLK1-FL1Δ (residues 50-686); 8XHis tag with TEV protease cleavage site (N); made in house; host or cells: Escherichia coli C41(DE3)
T2 sequence (O15075 50-686 D511N): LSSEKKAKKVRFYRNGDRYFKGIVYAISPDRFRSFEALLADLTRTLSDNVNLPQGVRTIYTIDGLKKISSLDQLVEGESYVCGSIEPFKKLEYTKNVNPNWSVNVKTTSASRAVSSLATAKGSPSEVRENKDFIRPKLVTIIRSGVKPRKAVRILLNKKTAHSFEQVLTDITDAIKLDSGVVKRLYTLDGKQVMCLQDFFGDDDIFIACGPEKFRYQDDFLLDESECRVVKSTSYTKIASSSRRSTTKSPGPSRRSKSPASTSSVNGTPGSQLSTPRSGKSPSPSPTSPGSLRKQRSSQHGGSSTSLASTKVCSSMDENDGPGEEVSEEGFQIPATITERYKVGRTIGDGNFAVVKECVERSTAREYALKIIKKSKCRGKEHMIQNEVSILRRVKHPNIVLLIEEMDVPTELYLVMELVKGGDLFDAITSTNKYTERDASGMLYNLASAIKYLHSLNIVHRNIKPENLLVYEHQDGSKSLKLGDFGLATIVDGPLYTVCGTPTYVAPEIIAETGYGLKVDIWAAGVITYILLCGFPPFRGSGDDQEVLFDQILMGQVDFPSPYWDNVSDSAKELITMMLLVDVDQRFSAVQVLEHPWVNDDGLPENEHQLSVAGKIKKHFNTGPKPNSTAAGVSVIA
Method: (§2) SPR studies were carried out on a Biacore 2000 instrument (Cytivia). Proteins were immobilised at 25 °C using standard amine coupling to a CM5 chip (Cytivia) in immobilisation buffer consisting of 10 mM HEPES pH 7.4, 150 mM NaCl, 1 mM TCEP, 0.005% Tween P20, 1% (v/v) DMSO. To the active flow, cells were coupled either DCLK1-FL1Δ D511N or WT to a final density of approximately 7000 RU, followed by surface deactivation with 1 M ethanolamine. For each protein, coupling was performed at a concentration of 2 µM protein in 10 mM sodium acetate buffer pH 4.0, 1% (v/v) DMSO final, in the presence 10 µM of the moderate affinity compound FMF-03-149-01 (IC50 ~400 nM)[28] to help to stabilise the kinase domain during immobilsiation at low pH. A blank immobilisation was performed on the reference flow cell.
(§3) Binding experiments were performed at 18 °C in running buffer consisting of 20 mM HEPES, pH 7.4, 150 mM NaCl, 1 mM tris(2-carboxyethyl)phosphine (TCEP), 0.005% (v/v) Tween-P20, and 2% (v/v) DMSO. Compounds (10 mM stocks in 100% DMSO) were diluted in DMSO to 500 µM (DCLK1-NEG) or 25 µM (all other compounds) then in running buffer (without DMSO) to achieve the starting concentration with a final DMSO concentration of 2% (v/v). Samples were then serially titrated in running buffer containing 2% (v/v) DMSO to prepare each final concentration series (seven-point, three-fold serial dilution, 10 µM−13.7 nM for DCLK1-NEG, or 500−0.68 nM for all other compounds). Solutions were injected in multi-cycle format (in duplicate) without regeneration (contact time 80 s, flow rate 75 μL/min, dissociation time 600 s), with an extra wash (50% DMSO) after each injection.
(§4) Steady-state/kinetic binding data were fitted using the S200 BIAevaluation software (GE Healthcare). Sensorgrams from reference surfaces and blank injections were subtracted from the raw data (double-referencing), followed by solvent correction. Kinetic rate constants (kon and koff values) were obtained by fitting to 1:1 Langmuir binding model. Reported binding data represent mean ± SEM for three or four independent experiments. The dissociative half-life life (t1/2) for each inhibitor complex with DCLK1 was calculated from the fitted dissociation rate constant (koff), according to the equation 1 (t1/2 = ln(2)/koff.)

DCLK1-FL1Δ WT = target: T3, DCLK1-FL1Δ WT (Homo sapiens, UniProt O15075); assay: SPR binding to immobilised DCLK1-FL1Δ WT (phosphorylated); conditions: for Kd / kon, kinetic fitting: SPR, mean ± SEM; for Kd: 18 °C, DCLK1 FL1Δ WT immobilised; for kon, kinetic fitting: DCLK1 FL1Δ WT; for koff: read-out: koff, kinetic fitting
T3 sequence (O15075 50-686 isoform O15075-2): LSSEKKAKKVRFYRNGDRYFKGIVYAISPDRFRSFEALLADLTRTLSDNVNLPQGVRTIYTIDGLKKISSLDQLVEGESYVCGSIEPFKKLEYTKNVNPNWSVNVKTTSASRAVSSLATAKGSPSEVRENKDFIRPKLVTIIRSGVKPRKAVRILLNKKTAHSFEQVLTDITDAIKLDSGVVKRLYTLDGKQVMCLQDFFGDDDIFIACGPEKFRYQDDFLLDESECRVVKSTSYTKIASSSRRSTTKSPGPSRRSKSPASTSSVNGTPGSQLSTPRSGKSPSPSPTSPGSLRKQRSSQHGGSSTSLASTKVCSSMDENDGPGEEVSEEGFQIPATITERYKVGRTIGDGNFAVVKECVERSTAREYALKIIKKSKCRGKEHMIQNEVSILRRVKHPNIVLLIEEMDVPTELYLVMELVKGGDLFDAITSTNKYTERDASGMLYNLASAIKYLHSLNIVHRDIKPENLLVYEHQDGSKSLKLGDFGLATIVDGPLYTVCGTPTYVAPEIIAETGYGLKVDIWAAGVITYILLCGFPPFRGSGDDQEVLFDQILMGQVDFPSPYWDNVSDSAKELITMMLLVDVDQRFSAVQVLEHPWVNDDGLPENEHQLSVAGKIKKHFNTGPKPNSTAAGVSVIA
Method: as §2, §3, §4

DCLK1 = conditions: N-ethyl substitution at R4; cited from earlier work
[3] = target: T4, DCLK1-FL1Δ D511N tubulin polymerisation (MAP function) (Homo sapiens, UniProt O15075, D511N); assay: Tubulin polymerisation and pelleting assay with DCLK1-FL1Δ D511N; type: biochemical; conditions: 40 μM, pelleting / SDS-PAGE (Fig. 5d)
T4 construct: DCLK1-FL1Δ (residues 50-686); 8XHis tag with TEV protease cleavage site (N); made in house; host or cells: Escherichia coli C41(DE3)
T4 sequence (O15075 50-686 isoform O15075-2 D511N): T3 sequence (O15075 50-686 isoform O15075-2) with D462N
Method: Tubulin polymerisation assays were performed in buffer containing 80 mM PIPES at pH 6.9, 2.0 mM MgCl2, 0.5 mM EGTA, 2.5 mM β,γ-Methyleneguanosine 5’-triphosphate, and 10 μM tubulin and 5 μM DCLK1 for 1 h at 37 °C. For tubulin polymerisation in the presence of inhibitors, various concentrations of the inhibitors were first incubated with DCLK1 and allowed to stand on ice for 5 min before adding this mix to the tubulin polymerisation reaction. Following the tubulin polymerisation, the reaction mix was pelleted at 20,000 g for 20 min and the supernatant and the pellet fractions were run on a 12% SDS gel. The data shown are representative of two independent experiments.

[4] = target: T4, DCLK1-FL1Δ D511N tubulin polymerisation (MAP function); assay: Fluorescence-based Tubulin Polymerisation Assay with DCLK1-FL1Δ D511N; type: biochemical; conditions: 80 μM, fluorescence (Fig. 5e)
Method: Tubulin polymerisation assay were performed using the Microtubule Polymerisation/Depolymerisation Fluorescence Kit (Cytoskeleton #BK011P) in accordance with the manufacturer’s instructions. DCLK1 (4 μΜ) was added to 50 μL tubulin reaction mix containing Buffer 1 (80 mM PIPES at pH 6.9, 2.0 mM MgCl2, 0.5 mM EGTA, 10 μM fluorescent reporter), guanosine triphosphate stock solution at 100 mM, and tubulin (10 mg/ml) stock solution, as described by the manufacturer. Paclitaxel, a control of tubulin polymerisation, was tested at 3 μM, and Νocodazole, a tubulin polymerisation inhibitor, was tested at 80 μΜ. DCLK1-IN-1 was tested at 20 and 40 μΜ with buffer alone as controls. Polymerisation leads to fluorescence enhancement due to incorporation of a fluorescence reporter into polymerising microtubules and was measured by excitation at 355 nm and emission at 460 nm. Readings were taken every 20 s on EnVision Multimode Plate Reader. Each condition was tested in duplicate with two independent batches of protein.

DCLK1-FL1Δ D511N [5] = target: T2, DCLK1-FL1Δ D511N; assay: Thermal shift stability assay, DCLK1-FL1Δ D511N; type: binding; conditions: 40 μM
Method: as §1

DCLK1-KD G532V = target: T5, DCLK1-KD G532V (Homo sapiens, UniProt O15075, G532V); assay: Thermal shift stability assay, DCLK1-KD G532V; type: binding; conditions: XMD8-85 40 μM, versus DCLK1-KD WT
T5 construct: Truncated DCLK1 constructs, DCLK1-KD (residues 372-649); 8XHis tag with TEV protease cleavage site (N); made in house; host or cells: Escherichia coli C41(DE3)
T5 sequence (O15075 372-649 isoform O15075-2 G532V): T1 sequence (O15075 372-649 isoform O15075-2) with G161V
Method: as §1, with “Thermal shift stability assays were performed as described previously. DCLK1” for “DCLK1”

[6] = KD, kinetic fitting (1:1 binding model), 18 °C, DCLK1 FL1Δ D511N immobilised, mean ± SEM
[7] = KD, steady state fitting, 18 °C, DCLK1 FL1Δ D511N immobilised, mean ± SEM
[8] = kinetic fitting (1:1 binding model)

## COc1cc(N2CCN(C)CC2)ccc1Nc1ncc2c(n1)N(C)c1ccc(C)cc1C(=O)N2CC(F)(F)F [DCLK1-NEG]
[1]
  binding by shift in melting temperature (ΔTm): severely reduced binding to DCLK1-KD
DCLK1-FL1Δ D511N [2]; KD (weak binding to DCLK1), top concentration 10 µM
  Kd: > 10000 nM
DCLK1-FL1Δ WT; steady state fitting
  Kd: > 10000 nM

## CCN1C(=O)c2ccccc2N(C)c2nc(Nc3ccc(N4CCN(C)CC4)cc3OC)ncc21 [FMF-03-055-1]
DCLK1
  enhanced potency on DCLK1 compared to XMD8-85: 5 fold
DCLK1-FL1Δ D511N [2]; [6]
  Kd: 13 nM
DCLK1-FL1Δ D511N [2]; [7]
  Kd: 24 ± 1 nM
DCLK1-FL1Δ D511N [2]; mean ± SEM
  kon, kinetic fitting: 11 ± 4 1/Ms (x 10^5)
DCLK1-FL1Δ D511N [2]
  koff: 0.014 ± 0.006 s⁻¹
  kon: 1.1e+06 ± 400000 M⁻¹ s⁻¹
DCLK1-FL1Δ WT; [8]
  Kd: 12 ± 2 nM
DCLK1-FL1Δ WT; steady state fitting
  Kd: 28 ± 2 nM
DCLK1-FL1Δ WT
  kon, kinetic fitting: 9.6 ± 0.6 1/Ms (x 10^5)
  koff: 0.011 ± 0.001 s⁻¹

## COC(=O)Nc1nc2ccc(C(=O)c3cccs3)cc2[nH]1 [nocodazole]
[3]
  effect on tubulin polymerisation: inhibits tubulin polymerisation
[4]
  effect on tubulin polymerisation: inhibits tubulin polymerisation
DCLK1-FL1Δ D511N [5]
  binding to DCLK1 by thermal stability assay: does not bind

## COc1cc(N2CCN(C)CC2)ccc1Nc1ncc2c(n1)N(C)c1ccccc1C(=O)N2C [XMD8-85]
[1]
  binding by shift in melting temperature (ΔTm): bind DCLK1-KD
DCLK1-FL1Δ D511N [2]; [6]
  Kd: 8 nM
DCLK1-FL1Δ D511N [2]; [7]
  Kd: 14 ± 1 nM
DCLK1-FL1Δ D511N [2]; mean ± SEM
  kon, kinetic fitting: 12.8 ± 0.5 1/Ms (x 10^5)
DCLK1-FL1Δ D511N [2]
  koff: 0.01 ± 0.001 s⁻¹
  kon: 1.28e+06 ± 50000 M⁻¹ s⁻¹
DCLK1-KD G532V
  effect of Gly532 to valine mutation on binding affinity: considerably reduces XMD8-85 binding affinity
DCLK1-FL1Δ WT; [8]
  Kd: 7.5 ± 0.3 nM
DCLK1-FL1Δ WT; steady state fitting
  Kd: 12 ± 2 nM
DCLK1-FL1Δ WT
  kon, kinetic fitting: 22 ± 2 1/Ms (x 10^5)
  koff: 0.016 ± 0.001 s⁻¹
